{
  "source": "patent US10995359B2",
  "about": "“Method for determining drug-sensitive human cell lines by analysis method in which measurement of activity of two types of protein kinase is used” (NITTO BOSEKI CO., LTD., priority 2015, dated 2021)",
  "experiment_in_all_cases": "Drug sensitivity assay (cell growth test), sulforhodamine B",
  "format_in_all_cases": "cell-based",
  "key": {"[1]": {"test_system": "DU4475 (IM) cells", "conditions": "Homo sapiens, DU-4475, 72 hours, read-out: inhibition rate (%) by trametinib, classification by grid analysis", "protocol": "(§1) Cultured cells were treated with a MEK inhibitor and a PI3K inhibitor in various concentrations, and cell lines sensitive to MEK and PI3K were classified by calculating a cell growth inhibition rate. The culture method and analysis method are as follows.\n(§2) Thirteen types of cells used in the present study, HCC38 (BL1), MDA-MB-231 (MSL), DU4475 (IM), HCC1187 (IM), HCC1143 (BL1), HCC1395 (LAR), HCC1937 (BL1), MDA-MB-453 (LAR), HCC70 (BL2), HS578T (MSL), MDA-MB-157 (MSL) and MDA-MB-468 (BL1), were obtained from American type culture collection (ATCC), and SUM185PE (LAR) was obtained from ASTERAND BIOSCIENCE. All the cells belong to triple negative breast cancer (TNBC), and it is known which of six types (BL1, BL2, M, MSL, IM and LAR) these belong to by an existing classification method.\n(§3) All the cells were cultured in a medium designated from a source of supply, and 2 mM L-glutamine and 10% fetal bovine serum (FBS) were supplemented.\n(§4) Each type of cells was seeded in a 96 well titer plate at 1×10^4 cells/well, and trametinib, an MEK inhibitor (Medchem Express; 0.08, 0.16, 0.31, 0.63, 1.25, 2.5, 5, 10 and 20 μM), and wortmannin, a PI3K inhibitor (Wako Pure Chemical Industries, Ltd.; 0.08, 0.16, 0.31, 0.63, 1.25, 2.5, 5, 10 and 20 μM) were dissolved in Dimethyl Sulfoxide [DMSO] (Wako Pure Chemical Industries, Ltd.) in various concentrations and treated. In addition, the effect on cell growth was examined at 72 hours after the inhibitor by sulforhodamine B assay (manufactured by SIGMA-ALDRICH), and 50 μL of sulforhodamine B solution was added to each well and cells were left at room temperature for an hour for staining. The staining degree of metabolically survival cells was examined by monitoring absorbance at a wavelength of 565 nm using a microtiter plate. The absorbance of cells which were not treated with trametinib and wortmannin (treated with DMSO) was used as a control and defined as 100% to calculate a cell growth inhibition rate.\n(§5) The cell lines were classified into 4 types, cell lines sensitive to wortmannin (hereinafter, PA), cell lines sensitive to trametinib (hereinafter, MA), cell lines resistant to wortmannin and trametinib (hereinafter, R), and others (hereinafter, S). In the classification, first the inhibition rate of each drug was calculated in a concentration of 1 μM, and the inhibition rate (%) by trametinib and the inhibition rate (%) by wortmannin were plotted on the X axis and Y axis respectively on a graph.\n(§6) The cell lines were classified into 4 types, cell lines sensitive to wortmannin (hereinafter, PA), cell lines sensitive to trametinib (hereinafter, MA), cell lines resistant to wortmannin and trametinib (hereinafter, R), and others (hereinafter, S). In the classification, first the inhibition rate of each drug was calculated in a concentration of 100 nM, and the inhibition rate (%) by trametinib and the inhibition rate (%) by wortmannin were plotted on the X axis and Y axis respectively on a graph.\nas §5, with “10” for “1”, “graph. Using a 50% growth inhibition rate as an index of the inhibitive effect of a drug, cells were classified into 4 types by grid analysis.” for “graph.”"}, "[2]": {"test_system": "HCC1937 (BL1) cells", "conditions": "Homo sapiens, 72 hours, read-out: inhibition rate (%) by trametinib, classification by grid analysis", "protocol": "as §1, §2, §3, §4, §5, §6\nas §5, with “10” for “1”, “graph. Using a 50% growth inhibition rate as an index of the inhibitive effect of a drug, cells were classified into 4 types by grid analysis.” for “graph.”"}, "[3]": {"test_system": "HCC70 (BL2) cells", "conditions": "Homo sapiens, 72 hours, read-out: inhibition rate (%) by trametinib, classification by grid analysis", "protocol": "as §1, §2, §3, §4, §5, §6\nas §5, with “10” for “1”, “graph. Using a 50% growth inhibition rate as an index of the inhibitive effect of a drug, cells were classified into 4 types by grid analysis.” for “graph.”"}, "[4]": {"test_system": "MDA-MB-453 (LAR) cells", "conditions": "Homo sapiens, 72 hours, read-out: inhibition rate (%) by trametinib, classification by grid analysis", "protocol": "as §1, §2, §3, §4, §5, §6\nas §5, with “10” for “1”, “graph. Using a 50% growth inhibition rate as an index of the inhibitive effect of a drug, cells were classified into 4 types by grid analysis.” for “graph.”"}, "[5]": {"test_system": "HCC1187 (IM) cells", "conditions": "Homo sapiens, 72 hours, read-out: inhibition rate (%) by trametinib, classification by grid analysis", "protocol": "as §1, §2, §3, §4, §5, §6\nas §5, with “10” for “1”, “graph. Using a 50% growth inhibition rate as an index of the inhibitive effect of a drug, cells were classified into 4 types by grid analysis.” for “graph.”"}, "[6]": {"test_system": "MDA-MB-157 (MSL) cells", "conditions": "Homo sapiens, 72 hours, read-out: inhibition rate (%) by trametinib, classification by grid analysis", "protocol": "as §1, §2, §3, §4, §5, §6\nas §5, with “10” for “1”, “graph. Using a 50% growth inhibition rate as an index of the inhibitive effect of a drug, cells were classified into 4 types by grid analysis.” for “graph.”"}, "[7]": {"test_system": "SUM185PE (LAR) cells", "conditions": "Homo sapiens, 72 hours, read-out: inhibition rate (%) by trametinib, classification by grid analysis", "protocol": "as §1, §2, §3, §4, §5, §6\nas §5, with “10” for “1”, “graph. Using a 50% growth inhibition rate as an index of the inhibitive effect of a drug, cells were classified into 4 types by grid analysis.” for “graph.”"}, "[8]": {"test_system": "HCC38 (BL1) cells", "conditions": "Homo sapiens, 72 hours, read-out: inhibition rate (%) by trametinib, classification by grid analysis", "protocol": "as §1, §2, §3, §4, §5, §6\nas §5, with “10” for “1”, “graph. Using a 50% growth inhibition rate as an index of the inhibitive effect of a drug, cells were classified into 4 types by grid analysis.” for “graph.”"}, "[9]": {"test_system": "HCC1395 (LAR) cells", "conditions": "Homo sapiens, 72 hours, read-out: inhibition rate (%) by trametinib, classification by grid analysis", "protocol": "as §1, §2, §3, §4, §5, §6\nas §5, with “10” for “1”, “graph. Using a 50% growth inhibition rate as an index of the inhibitive effect of a drug, cells were classified into 4 types by grid analysis.” for “graph.”"}},
  "data": [
    {"smiles": "CC(=O)Nc1cccc(-n2c(=O)n(C3CC3)c(=O)c3c(Nc4ccc(I)cc4F)n(C)c(=O)c(C)c32)c1", "note": "[trametinib]", "values": [
      {"measurement": "inhibition at 0.1 µM", "setting": "[1]; DU4475, 100 nM, index 12.5% growth inhibition rate", "value": "> 12.5", "unit": "%"},
      {"measurement": "inhibition at 1 µM", "setting": "[1]; DU4475, 1 μM, index 25% growth inhibition rate", "value": "> 25", "unit": "%"},
      {"measurement": "inhibition at 10 µM", "setting": "[1]; DU4475, 10 μM, index 50% growth inhibition rate", "value": "> 50", "unit": "%"},
      {"measurement": "inhibition at 0.1 µM", "setting": "[2]; HCC1937, 100 nM, index 12.5% growth inhibition rate", "value": "< 12.5", "unit": "%"},
      {"measurement": "inhibition at 1 µM", "setting": "[2]; HCC1937, 1 μM, index 25% growth inhibition rate", "value": "< 25", "unit": "%"},
      {"measurement": "inhibition at 10 µM", "setting": "[2]; HCC1937, 10 μM, index 50% growth inhibition rate", "value": "< 50", "unit": "%"},
      {"measurement": "inhibition at 0.1 µM", "setting": "[3]; HCC70, 100 nM, index 12.5% growth inhibition rate", "value": "> 12.5", "unit": "%"},
      {"measurement": "inhibition at 1 µM", "setting": "[3]; HCC70, 1 μM, index 25% growth inhibition rate", "value": "> 25", "unit": "%"},
      {"measurement": "inhibition at 10 µM", "setting": "[3]; HCC70, 10 μM, index 50% growth inhibition rate", "value": "> 50", "unit": "%"},
      {"measurement": "inhibition at 0.1 µM", "setting": "[4]; MDA-MB-453, 100 nM, index 12.5% growth inhibition rate", "value": "> 12.5", "unit": "%"},
      {"measurement": "inhibition at 1 µM", "setting": "[4]; MDA-MB-453, 1 μM, index 25% growth inhibition rate", "value": "> 25", "unit": "%"},
      {"measurement": "inhibition at 10 µM", "setting": "[4]; MDA-MB-453, 10 μM, index 50% growth inhibition rate", "value": "> 50", "unit": "%"},
      {"measurement": "inhibition at 0.1 µM", "setting": "[5]; HCC1187, 100 nM, index 12.5% growth inhibition rate", "value": "> 12.5", "unit": "%"},
      {"measurement": "inhibition at 1 µM", "setting": "[5]; HCC1187, 1 μM, index 25% growth inhibition rate", "value": "> 25", "unit": "%"},
      {"measurement": "inhibition at 10 µM", "setting": "[5]; HCC1187, 10 μM, index 50% growth inhibition rate", "value": "> 50", "unit": "%"},
      {"measurement": "inhibition at 0.1 µM", "setting": "[6]; MDA-MB-157, 100 nM, index 12.5% growth inhibition rate", "value": "< 12.5", "unit": "%"},
      {"measurement": "inhibition at 1 µM", "setting": "[6]; MDA-MB-157, 1 μM, index 25% growth inhibition rate", "value": "< 25", "unit": "%"},
      {"measurement": "inhibition at 10 µM", "setting": "[6]; MDA-MB-157, 10 μM, index 50% growth inhibition rate", "value": "< 50", "unit": "%"},
      {"measurement": "inhibition at 0.1 µM", "setting": "[7]; 100 nM, index 12.5% growth inhibition rate", "value": "< 12.5", "unit": "%"},
      {"measurement": "inhibition at 1 µM", "setting": "[7]; 1 μM, index 25% growth inhibition rate", "value": "< 25", "unit": "%"},
      {"measurement": "inhibition at 10 µM", "setting": "[7]; 10 μM, index 50% growth inhibition rate", "value": "< 50", "unit": "%"},
      {"measurement": "inhibition at 0.1 µM", "setting": "[8]; HCC38, 100 nM, index 12.5% growth inhibition rate", "value": "> 12.5", "unit": "%"},
      {"measurement": "inhibition at 1 µM", "setting": "[8]; HCC38, 1 μM, index 25% growth inhibition rate", "value": "> 25", "unit": "%"},
      {"measurement": "inhibition at 10 µM", "setting": "[8]; HCC38, 10 μM, index 50% growth inhibition rate", "value": "> 50", "unit": "%"},
      {"measurement": "inhibition at 0.1 µM", "setting": "[9]; HCC1395, 100 nM, index 12.5% growth inhibition rate", "value": "< 12.5", "unit": "%"},
      {"measurement": "inhibition at 1 µM", "setting": "[9]; HCC1395, 1 μM, index 25% growth inhibition rate", "value": "< 25", "unit": "%"},
      {"measurement": "inhibition at 10 µM", "setting": "[9]; HCC1395, 10 μM, index 50% growth inhibition rate", "value": "< 50", "unit": "%"}
    ]}
  ]
}
